Test results reported in US8900819B2, “ADRB2 cancer markers” (The Regents of The University of Michigan, priority 2007, dated 2014).
Entries after “also recorded” stand apart in the source; their conditions may differ.

What was measured:
ADRB2 transcript [1] = assay: qRT-PCR of ADRB2 transcript after DZNep in breast and prostate cancer cell lines; type: cell-based; details: 5 μM, 48 hrs; batch of breast and prostate cancer cell lines; FIG. 3K
Method: (§1) The ADRB2 antagonist ICI 118,551, and agonist Isoproterenol was purchased from Sigma-Aldrich, and used at a working concentration of 1 μM, 10 μM or 100 μM. SAHA was obtained from Biovision Inc, dissolved in DMSO, and used at a working concentration of 1 μM. DZNep was used at 5 μM and cells were treated for 48 hrs before being harvested for RNA isolation.
(§2) SYBR green qRT-PCR was carried out according to standard protocols in triplicates (Kleer et al., 2003, supra). Samples were normalized to the mRNA level of the house-keeping gene GAPDH or RPL13A.

RWPE cells = assay: Modified basement membrane invasion assay in RWPE cells; type: cell-based; details: noninvasive RWPE cells treated with 0, 1, or 10 μM; FIG. 4C
Method: as §1
(§3) Basement membrane matrix invasion assay was essentially performed as previously described (Kleer et al., 2003, supra). Briefly, warm serum free medium was mixed with Matrigel (Fisher Scientific) at 1:3 ratio, 300 μl of this Matrigel mixture was added into the center of each cell well inserts of the Chemicon 24-well plate (Chemicon), and allowed to solidify at room temperature for 1-2 hrs. Cells were trypsinized and resuspended in serum-free medium. Approximately 1×10^5 cells in 300 μl of serum free medium were placed into each insert, the upper chamber, whereas 500 μl of full medium was added to the lower chamber. Cells were treated with corresponding drug for 10 min prior to be placed into invasion chambers. Cells were then grown in the upper chamber for 48 hrs. The non-invading cells inside the insert were removed and the insert were stained for invaded cells on the lower surface of the membrane. The stained cells were then counted using a microscope and images taken.

[2] = tested on: RWPE benign prostate epithelial cells; assay: Immunoblot of EMT biomarkers and cell adhesion molecules in RWPE cells; type: cell-based; details: FIG. 4F
Method: as §1
Cell extracts were separated by SDS-PAGE and blotted onto nitrocelllular membranes, immunoblotted with antibodies and visualized using ECL-plus (Amercham Bioscience). The following antibodies were used: ADRB2 (Abcam), β-tubulin (Santa Cruz), EZH2 (BD Bioscience). The anti-ADRB2 antibody usually gives a major band of predicted size (46.5 kDa). However, some lots of this antibody may give an extra, weaker band about 5 kDa above the predicted band.

[3] = tested on: DU145 prostate cancer cells; assay: Modified basement membrane invasion assay in DU145 cells; type: cell-based
Method: as §3, with “The ADRB2 antagonist ICI 118,551, and agonist Isoproterenol was purchased from Sigma-Aldrich, and used at a working concentration of 1 μM, 10 μM or 100 μM. SAHA was obtained from Biovision Inc, dissolved in DMSO, and used at a working concentration of 1 μM. DZNep was used at 5 μM and cells were treated for 48 hrs before being harvested for RNA isolation. Basement” for “Basement”

[4] = tested on: DU145 prostate cancer cells; assay: Murine prostate tumor xenograft model (DU145); type: in vivo; details: nude mice, daily intraperitoneal injection 400 μg/day or 800 ug/day vs PBS; FIG. 5B
Method: All procedures involving mice were approved by the University Committee on Use and Care of Animals of the University of Michigan. Male nude athymic BALB/c nu/nu mice 5-week-old (Charles River Laboratory, Wilmington, Mass.) were used for examining the tumorigenicity. […] To evaluate the role of β-adrenergic signaling in tumor formation, DU145 cell was propagated, and treated with PBS or 10 μM Isoproterenol at 24 hrs prior to harvest. Cells were then harvested and suspended in a 0.1 ml PBS with or without treatment of 10 μM Isoproterenol. A total of 15 mice (n=5 per group) were each implanted with 5×10^6 DU145 cells into the dorsal flank subcutaneously. Treatment started 24 hrs after implantation. Each group was administered daily by intraperitoneal injection with either PBS or Isoproterenol (at 400 μg/day or 800 μg/day). Tumor size was measured every week and tumor volumes were estimated using the formula (n/6)(L×W2), where L=length of tumor and W=width.

RWPE-shADRB2 cells = assay: Modified basement membrane invasion assay in RWPE-shADRB2 cells; type: cell-based; details: RWPE-shADRB2 cells treated with 0, 10, or 100 μM
Method: The ADRB2 antagonist ICI 118,551, and agonist Isoproterenol was purchased from Sigma-Aldrich, and used at a working concentration of 1 μM, 10 μM or 100 μM. SAHA was obtained from Biovision Inc, dissolved in DMSO, and used at a working concentration of 1 μM. DZNep was used at 5 μM and cells were treated for 48 hrs before being harvested for RNA isolation. EZH2 adenovirus infection and RNA interference were performed as described (Kleer et al., Proc Natl Acad Sci USA 100, 11606-11611 2003; Varambally et al., Cancer Cell 8, 393-406 2002). RWPE cells with stable ADRB2 knockdown were generated by transfection with ADRB2 shRNA constructs (Open Biosystems, Huntsville, Ala.) and selection with puromycin. DU145 cell lines with stable EZH2 knockdown were generated using EZH2 shRNA expressing constructs (Open Biosystems). Basement membrane matrix invasion assay was essentially performed as previously described (Kleer et al., 2003, supra). Briefly, warm serum free medium was mixed with Matrigel (Fisher Scientific) at 1:3 ratio, 300 μl of this Matrigel mixture was added into the center of each cell well inserts of the Chemicon 24-well plate (Chemicon), and allowed to solidify at room temperature for 1-2 hrs. Cells were trypsinized and resuspended in serum-free medium. […] The stained cells were then counted using a microscope and images taken.

ADRB2 promoter [5] = assay: ChIP of ectopic Myc-EZH2 at the ADRB2 promoter in H16N2 cells; type: cell-based, human; details: H16N2 cells with EZH2 adenovirus; FIG. 3F
Method: ChIP was performed according to published protocols with slight modifications (Boyd et al., Proc Natl Acad Sci USA 95, 13887-13892 1998). Briefly, formaldehyde was added directly to the cultured cells to a final concentration of 1%. For metastasis tissues, samples were first chopped into small pieces with a razor blade and transferred into 5-10 ml PBS before adding formaldehyde. Cells were rotated at room temperature for 10 min. The crosslinking was stopped by 1/20V of 2.5M Glycine and the cells were washed with 1×PBS and harvested in 1×PBS with proteinase inhibitors. Metastasis tissue samples were further disaggregated using a tissue homogenizer. The cells were then pelleted and resuspended in cell lysis buffer containing protease inhibitors. After incubation in cell lysis buffer for 10 min, the samples were pelleted, resuspended in nuclei lysis buffer and sonicated to chromatins with an average size of 500 bp. The chromatins were precleared using Salmon sperm DNA/Protein A Agarose-50% flurry and incubated with specific antibodies overnight. Antibodies used in this study include EZH2 (BD Bioscience), EED (Upstate), SUZ12 (Abeam), trimethylated H3K27 (Upstate), Acetyl-H3K27 (Upstate), Myc (Abeam), and IgG control (Santa Cruz). The next day, the antibody-bound chromatin was pooled down using protein A/agarose, washed extensively, and reverse-crosslinked. […]

ADRB2 promoter [6] = assay: ChIP of endogenous PRC2 complex, 3mH3K27 and acetylated H3 at the ADRB2 promoter; type: cell-based; details: FIG. 3H-I
Method: ChIP was performed according to published protocols with slight modifications (Boyd et al., Proc Natl Acad Sci USA 95, 13887-13892 1998). Briefly, formaldehyde was added directly to the cultured cells to a final concentration of 1%. For metastasis tissues, samples were first chopped into small pieces with a razor blade and transferred into 5-10 ml PBS before adding formaldehyde. Cells were rotated at room temperature for 10 min. The crosslinking was stopped by 1/20V of 2.5M Glycine and the cells were washed with 1×PBS and harvested in 1×PBS with proteinase inhibitors. Metastasis tissue samples were further disaggregated using a tissue homogenizer. The cells were then pelleted and resuspended in cell lysis buffer containing protease inhibitors. After incubation in cell lysis buffer for 10 min, the samples were pelleted, resuspended in nuclei lysis buffer and sonicated to chromatins with an average size of 500 bp. The chromatins were precleared using Salmon sperm DNA/Protein A Agarose-50% flurry and incubated with specific antibodies overnight. […] The next day, the antibody-bound chromatin was pooled down using protein A/agarose, washed extensively, and reverse-crosslinked. Immunoprecipitated DNA and whole cell extract DNA were purified by treatment with RNase A, proteinase K and purified using Qiaquick PCR purification kit (Qiagen, Valencia, Calif.). The purified DNA was used for PCR analysis of enrichment. Purified DNA was blunted and ligated to linkers and amplified by a two-stage ligation-mediated PCR (LM-PCR) protocol (Lee et al., Cell 125, 301-313 2006) to generate enough chromatins for PCR analysis of multiple target genes or for hybridization to promoter arrays. Equal amount of amplified input and ChIP-enriched chromatins were subjected to PCR testing for enrichment of target gene promoters. For ChIP and qRT-PCR analysis, DU145 cells were treated with 0.5 μM of SAHA for 30 min, 2, 6, 12 and 24 hrs prior to harvest.

ADRB2 transcript [7] = assay: qRT-PCR of ADRB2 transcript after SAHA time course; type: cell-based; details: time course of SAHA treatment; FIG. 3J
Method: For ChIP and qRT-PCR analysis, DU145 cells were treated with 0.5 μM of SAHA for 30 min, 2, 6, 12 and 24 hrs prior to harvest.
as §2

Compound: Nc1nccc2c1ncn2C1C=C(CO)C(O)C1O (centres unmarked) [DZNep]
- ADRB2 transcript (ADRB2 transcript [1]): Marked up-regulation; also recorded: strong induction (de-repression) of ADRB2 in all cell lines tested

Compound: Cc1ccc(OCC(O)C(C)NC(C)C)c2c1CCC2 (centres unmarked) [ICI 118,551]
- cell invasion (RWPE cells): leads to increased invasion; also recorded: significantly increased invasion
- expression of EMT biomarkers and cell adhesion molecules [2]: regulates the expression of EMT biomarkers and cell adhesion molecules; also recorded: recaptured the expressional changes in RWPE-shADRB2 cells

Compound: CC(C)NCC(O)c1ccc(O)c(O)c1 (centres unmarked) [Isoproterenol]
- cell invasion ([3]; DU145 cells treated with 0, 10, or 100 μM): inhibits cell invasion
- cell invasion ([3]; DU145 cells treated with 0, 10, or 100 μM, listed as isoproterenol): significantly reduced invasion
- cell invasion ([3]; PCA model system, cell line not given): decreased cell invasion
- xenograft tumor size [4]: significantly (two-sample t-test, p=0.006) smaller tumors
- cell invasion (RWPE-shADRB2 cells): inhibits cell invasion
- cell invasion (RWPE-shADRB2 cells; listed as isoproterenol): significantly reduced invasion

Compound: O=C(CCCCCCC(=O)Nc1ccccc1)NO [SAHA]
- recruitment of Myc-EZH2 to the ADRB2 promoter (ADRB2 promoter [5]): this binding being sensitive to SAHA
- H3K27 trimethylation at the ADRB2 promoter (ADRB2 promoter [6]): marked reduction of PRC2 binding and consequent H3K27 trimethylation
- acetylated H3 at the ADRB2 promoter (ADRB2 promoter [6]): accumulation of acetylated H3
- PRC2 binding at the ADRB2 promoter (ADRB2 promoter [6]; endogenous PRC2): sensitive to the HDAC inhibitor SAHA; also recorded: marked reduction of PRC2 binding
- ADRB2 transcript (ADRB2 transcript [7]): up-regulated; also recorded: upregulation of ADRB2 transcripts
